Biological target: T1, SIRT1 (Homo sapiens, UniProt Q96EB6)
T1 sequence (Q96EB6 1-747): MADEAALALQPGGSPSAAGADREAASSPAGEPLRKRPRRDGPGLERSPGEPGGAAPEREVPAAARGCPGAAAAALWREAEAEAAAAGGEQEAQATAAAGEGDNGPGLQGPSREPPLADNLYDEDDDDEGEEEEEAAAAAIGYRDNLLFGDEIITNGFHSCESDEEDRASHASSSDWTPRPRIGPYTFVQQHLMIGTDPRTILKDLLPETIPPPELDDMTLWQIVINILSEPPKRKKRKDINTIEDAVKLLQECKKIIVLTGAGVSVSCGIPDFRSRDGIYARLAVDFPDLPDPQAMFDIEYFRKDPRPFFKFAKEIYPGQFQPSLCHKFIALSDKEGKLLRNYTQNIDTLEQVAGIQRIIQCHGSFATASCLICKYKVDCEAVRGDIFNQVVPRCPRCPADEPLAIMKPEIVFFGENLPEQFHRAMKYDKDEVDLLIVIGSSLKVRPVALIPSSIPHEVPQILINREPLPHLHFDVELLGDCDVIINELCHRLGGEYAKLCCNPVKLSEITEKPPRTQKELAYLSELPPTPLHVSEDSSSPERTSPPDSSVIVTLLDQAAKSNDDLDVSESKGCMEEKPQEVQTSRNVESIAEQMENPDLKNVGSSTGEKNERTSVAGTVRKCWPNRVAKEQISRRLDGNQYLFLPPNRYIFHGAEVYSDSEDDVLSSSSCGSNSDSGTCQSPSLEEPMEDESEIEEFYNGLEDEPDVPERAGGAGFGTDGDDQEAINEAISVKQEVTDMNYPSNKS
Assay: Trp mass spectrometry assay of SIRT1 activity (EC1.5, percent maximum activation)
Type: biochemical
Settings: Trp mass spectrometry assay; for TRP Activity (EC1.5): EC1.5 = concentration giving 150% activation of SIRT1; for TRP MAX RESP (percent maximum fold activation): percent maximum activation of SIRT1
How it was run: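 Mass spectrometry read-out (OAADPR formed, or deacetylated Trp peptide) after a 25 min NAD-dependent deacetylation by E. coli-expressed His-SIRT1, stopped with formic acid.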

| Structure (SMILES) | TRP Activity (EC1.5) | TRP MAX RESP (percent maximum fold activation) |
| --- | --- | --- |
| COc1cc(-c2ccc3c(n2)N(C(=O)Nc2cnccn2)[C@H]2CCN3C2)cc(C)n1 [Example 142, (4S)-7-(2-methoxy-6-methylpyridin-4-yl)-N-(pyrazin-2-yl)-3,4-dihydro-1,4-methanopyrido[2,3-b][1,4]diazepine-5(2H)-carboxamide] | B (EC1.5 1-25 μM) | A (Fold activation ≧150%) |
| Cc1cc(-c2ccc3c(n2)N(C(=O)Nc2ncn(C)n2)[C@H]2CCN3C2)ccn1 [Example 143, (4S)-N-(1-methyl-1H-1,2,4-triazol-3-yl)-7-(2-methylpyridin-4-yl)-3,4-dihydro-1,4-methanopyrido[2,3-b][1,4]diazepine-5(2H)-carboxamide] | B (EC1.5 1-25 μM) | A (Fold activation ≧150%) |
| CNc1cc(-c2ccc3c(n2)N(C(=O)Nc2cnccn2)[C@H]2CCN3C2)ccn1 [Example 144, (4S)-7-(2-(methylamino)pyridin-4-yl)-N-(pyrazin-2-yl)-3,4-dihydro-1,4-methanopyrido[2,3-b][1,4]diazepine-5(2H)-carboxamide] | B (EC1.5 1-25 μM) | A (Fold activation ≧150%) |
| Cc1cc(-c2ccc3c(n2)N(C(=O)Nc2nccc4[nH]cnc24)[C@H]2CCN3C2)ccn1 [Example 145, (4S)-N-(1H-imidazo[4,5-c]pyridin-4-yl)-7-(2-methylpyridin-4-yl)-3,4-dihydro-1,4-methanopyrido[2,3-b][1,4]diazepine-5(2H)-carboxamide] | B (EC1.5 1-25 μM) | A (Fold activation ≧150%) |
| O=C(Nc1cnccn1)N1c2nc(-c3ccc(CO)nc3)ccc2N2CC[C@H]1C2 [Example 147, (4S)-7-(6-(hydroxymethyl)pyridin-3-yl)-N-(pyrazin-2-yl)-3,4-dihydro-1,4-methanopyrido[2,3-b][1,4]diazepine-5(2H)-carboxamide] | B (EC1.5 1-25 μM) | A (Fold activation ≧150%) |
| Cc1cc(-c2ccc3c(n2)N(C(=O)Nc2cnc4c(c2)OCCO4)[C@H]2CCN3C2)ccn1 [Example 148, (4S)-N-(2,3-dihydro-[1,4]dioxino[2,3-b]pyridin-7-yl)-7-(2-methylpyridin-4-yl)-3,4-dihydro-1,4-methanopyrido[2,3-b][1,4]diazepine-5(2H)-carboxamide] | – | A (Fold activation ≧150%) |
| Cc1cc(-c2ccc3c(n2)N(C(=O)N2CCOCC2)[C@H]2CCN3C2)ccn1 [Example 150, ((4S)-7-(2-methylpyridin-4-yl)-3,4-dihydro-1,4-methanopyrido[2,3-b][1,4]diazepin-5(2H)-yl)(morpholino)methanone] | C (EC1.5>25 μM) | B (Fold Activation <150%) |
| Cc1cc(-c2ccc3c(n2)N(C(=O)N2CCCCC2)[C@H]2CCN3C2)ccn1 [Example 151, ((4S)-7-(2-methylpyridin-4-yl)-3,4-dihydro-1,4-methanopyrido[2,3-b][1,4]diazepin-5(2H)-yl)(piperidin-1-yl)methanone] | C (EC1.5>25 μM) | B (Fold Activation <150%) |
| Cc1cc(-c2ccc3c(n2)N(C(=O)Nc2nccc4nccnc24)[C@H]2CCN3C2)ccn1 [Example 152, (4S)-7-(2-methylpyridin-4-yl)-N-(pyrido[3,4-b]pyrazin-5-yl)-3,4-dihydro-1,4-methanopyrido[2,3-b][1,4]diazepine-5(2H)-carboxamide] | B (EC1.5 1-25 μM) | A (Fold activation ≧150%) |
| Cc1cc(-c2ccc3c(n2)N(C(=O)Nc2cccc4nnc(C)cc24)[C@H]2CCN3C2)ccn1 [Example 153, (4S)-N-(3-methylcinnolin-5-yl)-7-(2-methylpyridin-4-yl)-3,4-dihydro-1,4-methanopyrido[2,3-b][1,4]diazepine-5(2H)-carboxamide] | B (EC1.5 1-25 μM) | A (Fold activation ≧150%) |
| Cc1cncc(-c2ccc3c(n2)N(C(=O)Nc2cnccn2)[C@H]2CCN3C2)c1 [Example 154, (4S)-7-(5-methylpyridin-3-yl)-N-(pyrazin-2-yl)-3,4-dihydro-1,4-methanopyrido[2,3-b][1,4]diazepine-5(2H)-carboxamide] | B (EC1.5 1-25 μM) | A (Fold activation ≧150%) |
| Cn1cc(-c2ccc3c(n2)N(C(=O)Nc2cnccn2)[C@H]2CCN3C2)cn1 [Example 155, (4S)-7-(1-methyl-1H-pyrazol-4-yl)-N-(pyrazin-2-yl)-3,4-dihydro-1,4-methanopyrido[2,3-b][1,4]diazepine-5(2H)-carboxamide] | B (EC1.5 1-25 μM) | A (Fold activation ≧150%) |
| CCc1ccc(-c2ccc3c(n2)N(C(=O)Nc2cnccn2)[C@H]2CCN3C2)cn1 [Example 156, (4S)-7-(6-ethylpyridin-3-yl)-N-(pyrazin-2-yl)-3,4-dihydro-1,4-methanopyrido[2,3-b][1,4]diazepine-5(2H)-carboxamide] | B (EC1.5 1-25 μM) | A (Fold activation ≧150%) |
| Cc1cc(-c2ccc3c(n2)N(C(=O)Nc2ccc4[nH]ncc4c2)[C@H]2CCN3C2)ccn1 [Example 157, (4S)-N-(1H-indazol-5-yl)-7-(2-methylpyridin-4-yl)-3,4-dihydro-1,4-methanopyrido[2,3-b][1,4]diazepine-5(2H)-carboxamide] | A (EC1.5<1 μM) | A (Fold activation ≧150%) |
| Cc1cc(-c2ccc3c(n2)N(C(=O)Nc2cccnn2)[C@H]2CCN3C2)ccn1 [Example 158, (4S)-7-(2-methylpyridin-4-yl)-N-(pyridazin-3-yl)-3,4-dihydro-1,4-methanopyrido[2,3-b][1,4]diazepine-5(2H)-carboxamide] | B (EC1.5 1-25 μM) | A (Fold activation ≧150%) |
| Cc1cc(-c2ccc3c(n2)N(C(=O)Nc2cnccn2)[C@H]2CCN3C2)c(C)cn1 [Example 159, (4S)-7-(2,5-dimethylpyridin-4-yl)-N-(pyrazin-2-yl)-3,4-dihydro-1,4-methanopyrido[2,3-b][1,4]diazepine-5(2H)-carboxamide] | B (EC1.5 1-25 μM) | A (Fold activation ≧150%) |
| O=C(Nc1cnccn1)N1c2nc(N3CCOCC3)ccc2N2CC[C@H]1C2 [Example 160, (4S)-7-morpholino-N-(pyrazin-2-yl)-3,4-dihydro-1,4-methanopyrido[2,3-b][1,4]diazepine-5(2H)-carboxamide] | B (EC1.5 1-25 μM) | A (Fold activation ≧150%) |

— patent US20170355705A1 (GlaxoSmithKline Intellectual Property (No.2) Limited, priority 2014, published 2017)
